The values that follow come from patent US4670469A, “Hydroxamic acid and pharmaceutical preparations containing the same” (VEB Arzneimittelwerk Dresden, priority 1983, dated 1987).

Like-named read-outs stand apart in the source and are kept apart here.

Assay [1] deals with T1, lipoxygenase from rabbit reticulocytes (Oryctolagus cuniculus, UniProt P12530).
T1 construct: The lipoxygenase from rabbit reticulocytes is obtained in electrophoretically and immunologically pure form; from tissue; host or cells: rabbit reticulocytes
T1 sequence (P12530 1-663): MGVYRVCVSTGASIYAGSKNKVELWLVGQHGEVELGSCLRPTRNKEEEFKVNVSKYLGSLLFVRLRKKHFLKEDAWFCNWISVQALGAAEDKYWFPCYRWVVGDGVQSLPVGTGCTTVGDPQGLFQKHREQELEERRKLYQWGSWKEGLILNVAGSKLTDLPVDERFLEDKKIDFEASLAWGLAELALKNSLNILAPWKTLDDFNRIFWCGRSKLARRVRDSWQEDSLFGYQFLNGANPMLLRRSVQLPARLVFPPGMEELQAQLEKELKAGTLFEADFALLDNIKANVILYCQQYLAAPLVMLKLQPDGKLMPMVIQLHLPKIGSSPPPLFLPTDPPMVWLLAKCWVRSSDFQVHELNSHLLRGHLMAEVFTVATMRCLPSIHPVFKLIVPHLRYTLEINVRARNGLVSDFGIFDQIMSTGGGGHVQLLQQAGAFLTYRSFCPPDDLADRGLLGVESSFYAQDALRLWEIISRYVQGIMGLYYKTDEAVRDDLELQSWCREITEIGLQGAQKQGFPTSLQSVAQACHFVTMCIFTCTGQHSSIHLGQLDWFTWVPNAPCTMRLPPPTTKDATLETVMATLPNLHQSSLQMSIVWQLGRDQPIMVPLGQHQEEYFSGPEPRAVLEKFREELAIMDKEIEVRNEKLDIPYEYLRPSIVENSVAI
In words: Inhibition of the activity of lipoxygenase from rabbit reticulocytes (oxygen consumption, Clark electrode). The format is biochemical. The conditions noted are these: for IC84: read-out: I84. The protocol: The lipoxygenase from rabbit reticulocytes was obtained in electrophoretically and immunologically pure form according to a technique known from the literature (S. M. Rapoport et al. Methods in Enzymology 71, 430 (1981)). The determination of lipoxygenase activity follows at 25° C. through the polarographic measurement of the oxygen consumption by means of Clark Electrode in a standardized system.
Through variation of the substance concentrations, the titration curves of the inhibition and therefrom the inhibition concentrations (I-value) of the compounds can be determined.
The testing of compounds for antiasthmatic, antiallergenic, inflammation-inhibiting and antithrombotic activity on the basis on the inhibition of the lipoxygenase reaction of the arachidonic acid cascade follows in a molecular/pharmacological test system. […] The lipoxygenase from rabbit reticulocytes is obtained in electrophoretically and immunologically pure form according to the techniques described in the literature (supra). The determination of the lipoxygenase activity follows at 25° C. through the polorographic measurement of oxygen consumption by means of a Clark-electrode in the following system: 0.1M potassiumphosphate, pH 7.4, with 0.2 percent sodium cholate and 0.53 mM linoleic acid. The enzyme concentration in the measurement preparation came to 25 nM. The compounds to be tested are dissolved in methylglycol (freshly distilled in a vacuum) and pre-incubated for 15 minutes at the measuring temperature in the absence of sodium cholate and linoleic acid. […] The enzyme reaction is started by the addition of sodium cholate and linoleic acid.

A further assay relates to guinea pig trachia. In words: Carbachol-induced spasm of guinea pig trachea. The conditions noted are these: Cavia porcellus; spasm triggered by 3.9 μM carbachol; read-out: active substance concentration at which strong to very strong dilatation was clearly determinable. The source says: (§1) The testing of the compounds for antiasthmatic activity follows on isolated lung strips and isolated tracheal rings from guinea pigs according to measuring methods known from the literature (supra) in modified form. The measurements follow in thermostatically controlled organ bath, isotonically using a contraction measuring arrangement with lift receiver, measuring coil, measuring amplifier (inductive measurement with the aid of a high frequency resonant circuit). The gasification follows with air. The suspension solution has the following composition: 39.46 g NaCl, 2.2 g KCl, 6.07 g Tris, 1.0 g CaCl2, 9.9 g glucose, 1.0 ml saturated MgCl2 -solution, 43 ml 1N HCl; pH 7.4.
(b) Activity on the carbachol-induced spasm of guinea pig trachia
The spasms are triggered by 3.9 μM carbachol.

The test system of another assay is thrombocyte aggregation. Nature of the assay: Arachidonic acid-induced thrombocyte aggregation in thrombocyte-rich plasma. To be noted: Homo sapiens; 0.8 mM arachidonic acid; concentration giving total restraint of aggregation. The format is cell-based, humans. The text has this:
Since with the new medicines the restraints of lipoxygenase has been identified as a molecular type of attack, also their influence on the thrombocyte-aggregation has been tested. The essential role of the lipoxygenase pathway for irreversibility of the thrombocyte aggregation is now known. (C. E. Dutilh et al. Prostaglandins and Medicine 6, 111 (1981)). The key role is attributed to the irreversibility of the thrombocyte aggregation in the pathogenesis of thrombotic illnesses. […] In the experiments, the thrombocyte aggregation was triggered either by means of arachidonic acid or by means of platelet activation factor (PAF-Acether).
The testing of the compounds for antithrombotic and thrombolytic activity follows in authentic cell systems of humans in vitro. Thrombocyte-rich plasma from the blood of healthy donors is obtained by centrifugation at 1,000×g. The measurement of the thrombocyte aggregation follows by means of an aggregometer based upon diffuse light scattering or light absorption of the produced cell aggregate. The thrombocyte-rich plasma is pre-incubated at 37° C. for 3 minutes with the active substance or substances; thereafter the thrombocyte aggregation is triggered through the addition of either 0.8 mM arachidonic acid or 1 μM platelet activation factor (PAF-acether). The preparations are then stirred with a velocity of 800 rpm. Indeed according to the employed active substance concentration there occurs either a strong delay or a complete inhibition of the thrombocyte aggregation.

For assay [2], the system named is guinea pig lung strips. Nature of the assay: Arachidonic acid-induced spasm of isolated guinea pig lung strips. The conditions noted are these: active substance 100 μM.
From the text: They display in animal experimental tests on isolated lung strips from guinea pigs a pronounced antiasthmatic effect. The testing of the mentioned pharmacological characteristics follows according to the principles of measuring techniques known from the literature, which come into use in modified form (G. M. Drazen et al. G. Clin. Invest. 63 1 (1979); M. W. Schneider and G. M. Drazen Amer. Rev. Resp. Dis. 121 835 (1980); S. S. Yen and W. Kreutner, Agents Actions 10 274 (1980); S. S. Yen Prostaglandins 22, 183 (1981)).
The compounds of Formula I effect a significant restraint on arachidonic acid-induced bronchial constriction (1.5.10^-5 M arachidonic acid) in the guinea pig lung preparations (see, Example 6). Also with the addition of a cyclooxygenase inhibitor to the measuring system this effect was unaltered, and to some extent stronger, detectably. These experimental results permit without a doubt the conclusion that the compounds of Formula I involve inhibitors of the lipoxygerase pathway of arachidonic utilization, and the above described pharmacological effect is grounded upon this mechanism of activity.
as §1
(a) Activity on spasm of the guinea pig lung strips, induced by exogenous arachidonic acid.
The spasm is triggered by rising concentrations of arachidonic acid (concentrated solution in ethanol, stored in N2 -atmosphere) and is cumulatively measured. […] The active substance caused a highly significant displacement to the right of the Dose-Activity curves for arachidonic acid, visible by a clear elevation of the ED50 - and ED84 -values. The effect can be described through the following activity index: [formula] In an analogous manner, the index i84 is determined from the measured data.

Assay [3] relates to guinea pig lung strips. Nature of the assay: Activity on the basal tones of guinea pig lung strips. The conditions noted are these: Cavia porcellus, basal tone, cumulative dose-activity curve.
From the text: as §1
(c) Activity on the basal tones of guinea pig lung strips.
Increasing concentrations of the active substance are added to the suspension medium. There occurs a dilatation, which is cumulatively measured. From the Dose-Activity-curves are provided the following parameters: […]

Setting [4] is: 25° C., pH 7.4, 0.53 mM linoleic acid, 15 min pre-incubation, read-out: I50.
Setting [5] is: 25° C., pH 7.4, 0.53 mM linoleic acid, 15 min pre-incubation.

With `CC(Oc1ccc2ccccc2c1)C(=O)NO` (centres unmarked) [2(2'-naphthoxy)-2-methyl-acethydroxamic acid], the IC50 in assay [1] (setting [4]) was 40 µM. Further, the IC84 in assay [1] (setting [5]) is 120 µM.

For `NC1=NN(c2cccc(C(F)(F)F)c2)CC1` [BW 755 C, 3-amino-N-(3-trifluoromethylphenyl)-pyrazoline-(2), reference compound], the IC50 in assay [1] (setting [4]) stood at 20 µM.

In the case of `CCCC(Oc1ccc2ccccc2c1)C(=O)NO` (centres unmarked) [2(2'-naphthoxy)-2-n-propyl-acethydroxamic acid], in assay [1] (setting [4]), the IC50 is 24 µM.

As to `O=C(NO)c1ccc2ccccc2c1O` [1-hydroxy-2-naphthylhydroxamic acid], the IC50 in assay [1] (setting [4]) was 47 µM. Further, the IC84 in assay [1] (setting [5]) stood at 500 µM.

In the case of `O=C(CCOc1ccc2ccccc2c1)NO` [3(2'-naphthoxy)-n-propylhydroxamic acid, 3(2'-naphthoxy)-propylhydroxamic acid], the IC50 in assay [1] (setting [4]) is 7 µM. The IC84 in assay [1] (setting [5]) stood at 15 µM.

As for `O=C(CCCOc1ccc2ccccc2c1)NO` [4(2'-naphthoxy)-n-butyl-hydroxamic acid, 4(2'-naphthoxy)-butylhydroxamic acid], the IC50 in assay [1] (setting [4]) came out at 4 µM. Also, the IC84 in assay [1] (setting [5]) was 7.5 µM.

On to `CC(Cc1ccc(O)c(O)c1)C(C)Cc1ccc(O)c(O)c1` (centres unmarked) [nordihydroguaiaretic acid, reference compound], for which the minimal effective concentration in the assay on guinea pig trachia turned out to be 50 µM.

For the compound `O=C(CCCCCCCOc1ccc2ccccc2c1)NO` [8(2'-naphthoxy)-octylhydroxamic acid], the IC50 in assay [1] (setting [4]) worked out at 2.1 µM. In addition, the IC84 in assay [1] (setting [5]) worked out at 4.6 µM.

On to `CCCCCCCCC(Oc1ccc2ccccc2c1)C(=O)NO` (centres unmarked) [2(2'-naphthoxy)-2-n-octyl-acethydroxamic acid], for which, in assay [1] (setting [4]), the IC50 is 2.3 µM. Also, the IC84 in assay [1] (setting [5]) amounted to 7 µM.

Take `CCCCCCCCC#CCC#CCC#CCCCC(=O)O` [5,8,11-eicosatriicacid, reference compound]: the IC50 in assay [1] (setting [4]) stood at 1.3 µM.

In the case of `O=C(CCCCOc1ccc2ccccc2c1)NO` [5(2'-naphthoxy)valerylhydroxamic acid, 5(2'-naphthoxy)-valerylhydroxamic acid], the IC50 in assay [1] (setting [4]) came to 3.5 µM. Also, the IC84 in assay [1] (setting [5]) was 6.4 µM.

Regarding `O=[N+]([O-])c1ccc(O)c(O)c1` [4-nitrocatechol, reference compound], the IC100 with thrombocyte aggregation turned out to be 60 µM. The IC50 in assay [1] (setting [4]) was found to be 4.6 µM. In addition, the IC84 in assay [1] (setting [5]) turned out to be 16 µM.

Turning to `CCC(Oc1cccc2ccccc12)C(=O)NO` (centres unmarked) [2(1'-naphthoxy)-2-ethyl-acethydroxamic acid], the IC50 in assay [1] (setting [4]) was determined as 42 µM. The IC84 in assay [1] (setting [5]) was 130 µM.

As for `CCC(Oc1ccc2ccccc2c1)C(=O)NO` (centres unmarked) [2(2'-naphthoxy)-2-ethyl-acethydroxamic acid], in assay [1] (setting [4]), the IC50 turned out to be 32 µM.

With `CC(C)C(Oc1ccc2ccccc2c1)C(=O)NO` (centres unmarked) [2(2'-naphthoxy)-2-i-propyl-acethydroxamic acid], the IC50 in assay [1] (setting [4]) was found to be 27 µM.

For `CCCCCCCCCC(Oc1ccc2ccccc2c1)C(=O)NO` (centres unmarked) [2(2'-naphthoxy)-2-n-nonyl-acethydroxamic acid], in assay [1] (setting [4]), the IC50 was determined as 1.5 µM. Moreover, the IC84 in assay [1] (setting [5]) stood at 4.8 µM.

On to `CCCCC(Oc1ccc2ccccc2c1)C(=O)NO` (centres unmarked) [2(2'-naphthoxy)-2-n-butyl-acethydroxamic acid], for which the IC50 in assay [1] (setting [4]) was 19 µM.

On to `O=C(COc1cccc2ccccc12)NO` [2(1'-naphthoxy)-acethydroxamic acid], for which the IC50 in assay [1] (setting [4]) is 25 µM. The IC84 in assay [1] (setting [5]) was determined as 60 µM.

Consider `COc1ccc(O)c(C(C)(C)C)c1` [3-tert.-butyl-4-hydroxy-anisol, reference compound], for which, in the assay on guinea pig lung strips [2], the “activity index i50 (displacement of arachidonic acid ED50)” value worked out at 4.6 and the “activity index i84 (displacement of arachidonic acid ED84)” value came to 3.6. In assay [1], the IC50 came to 160 µM. For the same compound, the EC50 in the assay with guinea pig lung strips [3] (read-out: ED50 (dilatation)) was found to be 61 µM. For the same compound, the EC84 in the assay with guinea pig lung strips [3] (read-out: ED84 (dilatation)) was found to be 130 µM.
